The record followed here is patent US7365053B2, “Selective N-acylation of A82846 glygopeptides analogs” (priority 2000, dated 2008).

In experiment [1] the test system is Staphylococcus aureus X778. In words: Broth micro-dilution MIC. It counts as cell-based. The method, then:
(§1) The compounds of the present invention have in vitro activity against Gram-positive pathogenic bacteria. The antibacterial activity of the present compounds is illustrated in Tables III and IV. The minimal inhibitory concentrations (MICs) were determined using a standard broth micro-dilution assay. Table IV presents a comparison of the activity of illustrative compounds against representative vancomycin-resistant and vancomycin-sensitive enterococci (Enterococcus faecium and Enterococcus faecalis), mean geometric MIC (mcg/mL), as determined by the standard broth microdilution assay.
(§2) Assays for antimicrobial activity were performed using microbroth susceptibility testing methods as described by the NCCLS (National Committee for Clinical Laboratories Standards. 1990. Approved standard M7-A2. Methods for dilution antimicrobial susceptibility testing for bacteria that grow aerobically, 2 ed., Villanova Pa.). Brain-heart infusion medium (BHI) was used for testing of enterococci, and NCCLS recommendations for medium were followed for other bacteria.

Experiment [2] deals with Staphylococcus haemolyticus 105. In words: Broth micro-dilution MIC. The class given is cell-based. The method, then:
as §1, §2

For another experiment, the system named is Enterococcus faecium 180. In words: Broth micro-dilution MIC. Conditions: BHI medium. It counts as cell-based. On the procedure:
as §1, §2

Experiment [3] relates to Staphylococcus aureus SA1199A. The experiment can be described thus: Broth micro-dilution MIC. The class given is cell-based. On the procedure: as §1, §2
Experiment [4] relates to Enterococcus gallinarum 245. The experiment can be described thus: Broth micro-dilution MIC. It counts as cell-based. The note with it: BHI medium. The method, then: as §1, §2
For experiment [5], the system named is Streptococcus pyogenes C203. The experiment can be described thus: Broth micro-dilution MIC. The class given is cell-based. The method, then:
as §1, §2

The test system of experiment [6] is Staphylococcus epidermidis 270. The experiment can be described thus: Broth micro-dilution MIC. It counts as cell-based. On the procedure: as §1, §2
The subject of experiment [7] is Staphylococcus aureus 491. The experiment can be described thus: Broth micro-dilution MIC. The class given is cell-based. On the procedure: as §1, §2
Experiment [8] deals with Staphylococcus aureus 489. In words: Broth micro-dilution MIC. The class given is cell-based. On the procedure: as §1, §2
Experiment [9] deals with Enterococcus faecalis 276. In words: Broth micro-dilution MIC. Conditions: BHI medium. It counts as cell-based. The method, then: as §1, §2
The test system of experiment [10] is Staphylococcus aureus 446. The experiment can be described thus: Broth micro-dilution MIC. The class given is cell-based. On the procedure: as §1, §2
In experiment [11] the test system is Staphylococcus haemolyticus 415. The experiment can be described thus: Broth micro-dilution MIC. The class given is cell-based. The method, then:
as §1, §2

The test system of experiment [12] is Staphylococcus aureus SA1199B. In words: Broth micro-dilution MIC. The class given is cell-based. The method, then: as §1, §2
The test system of experiment [13] is Enterococcus faecalis 2041. The experiment can be described thus: Broth micro-dilution MIC. The class given is cell-based. Conditions: BHI medium. On the procedure: as §1, §2
A further experiment concerns Escherichia coli EC14. In words: Broth micro-dilution MIC. It counts as cell-based. The method, then:
as §1, §2

Experiment [14] has as its system Streptococcus pneumoniae P1. The experiment can be described thus: Broth micro-dilution MIC. The class given is cell-based. On the procedure: as §1, §2
In experiment [15] the test system is Staphylococcus aureus SA1199. The experiment can be described thus: Broth micro-dilution MIC. The class given is cell-based. On the procedure: as §1, §2
In experiment [16] the test system is Staphylococcus aureus 447. In words: Broth micro-dilution MIC. It counts as cell-based. The method, then: as §1, §2
Experiment [17] concerns Haemophilus influenzae RD. The experiment can be described thus: Broth micro-dilution MIC. The class given is cell-based. The method, then: as §1, §2
Experiment [18] has as its system Enterococcus faecium 180-1. In words: Broth micro-dilution MIC. The class given is cell-based. The note with it: BHI medium. On the procedure: as §1, §2
For experiment [19], the system named is Staphylococcus aureus X400. In words: Broth micro-dilution MIC. The class given is cell-based. The method, then:
as §1, §2

In experiment [20] the test system is Staphylococcus aureus S13E. The experiment can be described thus: Broth micro-dilution MIC. It counts as cell-based. On the procedure: as §1, §2
For experiment [21], the system named is vancomycin-resistant enterococci. The experiment can be described thus: In vitro activity against enterococci, broth microdilution. The class given is cell-based, Enterococcus faecium and Enterococcus faecalis. The note with it: representative vancomycin-resistant enterococci (E. faecium and E. faecalis); BHI medium. On the procedure:
as §1, §2

The subject of experiment [22] is vancomycin-sensitive enterococci. The experiment is described as above. It counts as cell-based, Enterococcus faecium and Enterococcus faecalis. The note with it: representative vancomycin-sensitive enterococci (E. faecium and E. faecalis); BHI medium. The method, then:
as §1, §2

≈ marks a conversion by molar mass, not a printed value.

As to `CNC(CC(C)C)C(=O)NC1C(=O)NC(CC(N)=O)C(=O)NC2C(=O)NC3C(=O)NC(C(=O)NC(C(=O)O)c4cc(O)cc(O)c4-c4cc3ccc4O)C(OC3CC(C)(NC(=O)c4ccc(-c5ccc(Cl)cc5)cc4)C(O)C(C)O3)c3ccc(c(Cl)c3)Oc3cc2cc(c3OC2OC(CO)C(O)C(O)C2OC2CC(C)(N)C(O)C(C)O2)Oc2ccc(cc2Cl)C1O` (stereo not drawn) [Example 5], the MIC was 0.5 µg/mL (≈ 0.277 µM) in [1]; 0.5 µg/mL (≈ 0.277 µM) in experiment [2]; 1 µg/mL (≈ 0.553 µM) against Enterococcus faecium 180; “≦.06 μg/ml” in [3]; 8 µg/mL (≈ 4.43 µM) in [4]; “≦.06 μg/ml” in experiment [5]. Also, the MIC was 4 µg/mL (≈ 2.21 µM) in experiment [6]; “≦.06 μg/ml” in experiment [7]; “≦.06 μg/ml” in experiment [8]; “≦.06 μg/ml” in experiment [9]; 0.5 µg/mL (≈ 0.277 µM) in experiment [10]; 8 µg/mL (≈ 4.43 µM) in experiment [11]. The MIC in [12] was 0.25 µg/mL (≈ 0.138 µM); in experiment [13] it was “≦.06 μg/ml”; with Escherichia coli EC14, more than 64 µg/mL; in experiment [14] it was “≦.06 μg/ml”; in experiment [15], 0.5 µg/mL (≈ 0.277 µM); in experiment [16], 2 µg/mL (≈ 1.11 µM). Further, the MIC in experiment [17] is more than 64 µg/mL; in experiment [18] it was “≦.06 μg/ml”; in experiment [19] it was “≦.06 μg/ml”; in [20], 0.5 µg/mL (≈ 0.277 µM). Further, the “Mean geometric MIC, Vancomycin Resistant Strains” value in [21] amounted to 19 µg/mL. Moreover, the “Mean geometric MIC, Vancomycin Sensitive Strains” value in experiment [22] is 0.29 µg/mL.

Take `CCCCCCCC(=O)NC1(C)CC(OC2c3ccc(c(Cl)c3)Oc3cc4cc(c3OC3OC(CO)C(O)C(O)C3OC3CC(C)(N)C(O)C(C)O3)Oc3ccc(cc3Cl)C(O)C(NC(=O)C(CC(C)C)NC)C(=O)NC(CC(N)=O)C(=O)NC4C(=O)NC3C(=O)NC2C(=O)NC(C(=O)O)c2cc(O)cc(O)c2-c2cc3ccc2O)OC(C)C1O` (stereo not drawn) [Example 9, 6′-N-octanoyl-A82846B]: the MIC in experiment [1] was 0.25 µg/mL (≈ 0.145 µM); in [2] it was 0.25 µg/mL (≈ 0.145 µM); in the experiment with Enterococcus faecium 180, 32 µg/mL (≈ 18.6 µM); in experiment [3] it was 0.125 µg/mL (≈ 0.0727 µM); in [4] it was 16 µg/mL (≈ 9.31 µM); in experiment [5], “≦.06 μg/ml”. Moreover, the MIC in experiment [6] was 2 µg/mL (≈ 1.16 µM); in experiment [7] it was 0.125 µg/mL (≈ 0.0727 µM); in [8], 0.125 µg/mL (≈ 0.0727 µM); in experiment [9], 0.125 µg/mL (≈ 0.0727 µM); in experiment [10], 1 µg/mL (≈ 0.582 µM); in experiment [11], 16 µg/mL (≈ 9.31 µM). Moreover, the MIC in experiment [12] was 0.5 µg/mL (≈ 0.291 µM); in [13], 0.5 µg/mL (≈ 0.291 µM); in the experiment on Escherichia coli EC14, more than 64 µg/mL; in experiment [14], “≦.06 μg/ml”; in experiment [15], 0.5 µg/mL (≈ 0.291 µM); in [16], 2 µg/mL (≈ 1.16 µM). The MIC in [17] worked out at 64 µg/mL (≈ 37.2 µM); in experiment [18], 0.125 µg/mL (≈ 0.0727 µM); in [19] it was 0.5 µg/mL (≈ 0.291 µM); in experiment [20], 1 µg/mL (≈ 0.582 µM). Besides, the “Mean geometric MIC, Vancomycin Resistant Strains” value in [21] was more than 90 µg/mL. Moreover, the “Mean geometric MIC, Vancomycin Sensitive Strains” value in [22] is 1.2 µg/mL.
